Results published in patent US20220280661A1, “GLUCOCORTICOID RECEPTOR RADIOLIGANDS AND METHODS FOR THEIR PREPARATION AND USE” (The Regents of the University of California, priority 2019, published 2022).

How the values were obtained:
full length human MR = target: T1, full length human MR (Homo sapiens, UniProt P08235); test: 3H-ligand displacement assay on cells, MR (HEK293 overexpressing MR); assay type: binding
T1 construct: HEK293 transiently overexpressing full length human MR; expressed in transfected cells; host or cells: HEK293
T1 sequence (P08235 1-984): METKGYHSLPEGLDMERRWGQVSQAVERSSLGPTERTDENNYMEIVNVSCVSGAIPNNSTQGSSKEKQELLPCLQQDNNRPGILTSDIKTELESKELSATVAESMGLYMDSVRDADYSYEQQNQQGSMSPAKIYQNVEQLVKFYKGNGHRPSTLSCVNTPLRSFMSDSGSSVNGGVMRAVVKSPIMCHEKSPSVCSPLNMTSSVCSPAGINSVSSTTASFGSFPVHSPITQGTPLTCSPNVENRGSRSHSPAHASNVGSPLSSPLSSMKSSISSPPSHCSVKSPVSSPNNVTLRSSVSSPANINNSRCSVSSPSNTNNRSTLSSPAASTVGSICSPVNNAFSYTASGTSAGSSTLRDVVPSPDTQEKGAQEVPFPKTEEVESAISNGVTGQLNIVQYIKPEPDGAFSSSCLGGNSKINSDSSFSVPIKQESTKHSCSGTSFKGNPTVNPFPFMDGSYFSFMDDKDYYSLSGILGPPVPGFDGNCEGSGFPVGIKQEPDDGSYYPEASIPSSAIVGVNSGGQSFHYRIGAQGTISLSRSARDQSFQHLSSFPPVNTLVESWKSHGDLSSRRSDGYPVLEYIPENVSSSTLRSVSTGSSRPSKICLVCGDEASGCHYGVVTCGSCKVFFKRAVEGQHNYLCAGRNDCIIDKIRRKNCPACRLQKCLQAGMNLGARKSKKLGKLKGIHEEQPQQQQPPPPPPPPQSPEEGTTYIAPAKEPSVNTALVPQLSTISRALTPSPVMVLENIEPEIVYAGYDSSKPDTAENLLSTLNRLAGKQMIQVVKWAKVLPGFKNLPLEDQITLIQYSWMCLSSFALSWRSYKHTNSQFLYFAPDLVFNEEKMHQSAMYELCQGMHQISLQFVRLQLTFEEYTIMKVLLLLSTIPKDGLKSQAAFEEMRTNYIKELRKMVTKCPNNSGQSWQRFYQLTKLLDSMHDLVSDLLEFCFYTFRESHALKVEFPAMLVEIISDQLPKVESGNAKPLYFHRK
Experimental: The affinity of YJH08 for GR and the other type 1 subfamily 3 nuclear hormone receptors was evaluated using ^3H-ligand displacement assays on cells. The Kd for subfamily 3 class C nuclear hormone receptors was determined on cells by displacing ^3H-steroidal agonists for the respective receptor. […] The Kd was determined using the following cell lines: DU145 (GR), LNCaP-AR (AR), MCF7 (PR, ER), and HEK293 transiently overexpressing full length human MR.
The cold ligands and ^3H-steroids were co-incubated on cells in PBS at room temperature for one hour. Following incubation, the cells were washed twice with ice cold PBS and the unbound activity was retained for analysis. The cells were lysed with 1 mL of 1M NaOH and collected. Bound and unbound fractions were counted in a liquid scintillation counter and expressed as a percentage of the total activity added per equal relative number of cells. […] These experiments were performed at three concentrations of experimental ligand (1 pM, 100 nM and 10 μM), and a linear extrapolation was used to subtract the non-specific component of binding from each treatment condition. The specific binding component was plotted against the log of the competing ligand and curve fit using a non-linear regression algorithm with PRISM software.

[1] = blood collected 30 minutes post injection
Experimental: Serum Stability Studies. Mice were euthanized, received radiotracer (30 MBq in 100-150 μL formulation) via tail injection, and dissected at dedicated time points post injection. The blood was collected and an aliquot (50 uL) was mixed with CH3CN (50 uL). The serum proteins were precipitated out and followed by a centrifugation (10000 rpm for 5 min). The cleared supernatant (50 uL) was collected and further analyzed by RAD-iTLC.
To confirm stability, blood was collected at 30 minutes post injection, a time point after which specific binding in vivo with (±)—^18F-YJH08 occurred.

Kd (full length human MR) [nM] | Compound | radiotracer stable in blood (ITLC) [1] [%]
290 | COc1cccc2c1-c1ccc3c(c1C(Cc1ccc(F)cc1)O2)C(C)=CC(C)(C)N3 (racemic) [YJH08, 5-(4-fluorobenzyl)-10-methoxy-2,2,4-trimethyl-2,5-dihydro-1H-chromeno[3,4-f]quinoline] | 
 | CC1=CC(C)(C)Nc2ccc3c(c21)C(Cc1ccc(F)cc1)Oc1cccc(O[11CH3])c1-3 (racemic) [(±)-^11C-YJH08] | > 90
